# Source: ChEMBL document CHEMBL5442219
# What was measured:
# Conditions in all cases: Compound concentration 10 µM
# [1] = target: T1, Alpha-2B adrenergic receptor (Homo sapiens) (UniProt P18089)
# T1 sequence (whole entry): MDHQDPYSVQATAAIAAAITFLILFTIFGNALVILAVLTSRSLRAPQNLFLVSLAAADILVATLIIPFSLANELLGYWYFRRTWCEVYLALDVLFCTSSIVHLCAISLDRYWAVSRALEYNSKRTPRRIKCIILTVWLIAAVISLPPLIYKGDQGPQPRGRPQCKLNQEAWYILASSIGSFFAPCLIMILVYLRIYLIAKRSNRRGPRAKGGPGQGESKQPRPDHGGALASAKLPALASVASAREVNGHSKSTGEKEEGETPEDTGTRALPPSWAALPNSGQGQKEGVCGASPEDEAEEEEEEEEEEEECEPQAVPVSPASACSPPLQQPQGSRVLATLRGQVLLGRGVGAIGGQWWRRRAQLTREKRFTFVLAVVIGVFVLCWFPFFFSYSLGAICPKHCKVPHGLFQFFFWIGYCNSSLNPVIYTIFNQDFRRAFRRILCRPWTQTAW
# Description: PDSP Primary Binding target: ADRA2B - Compounds are tested at 10 uM concentration, plate are incubated at room temperature in the dark for 90 minutes. Reaction are stopped by vacuum filtration onto 0.3% polyethyleneimine soaked filter mats using Filtermate harvester. Scintilation cocktail is then melted onto microwave-dried filters on a hot plate and the radio activity is counted in Microbia counter.
# [2] = target: 5-hydroxytryptamine receptor 1B (Homo sapiens) (UniProt P28222)
# Chain of 5-hydroxytryptamine receptor 1B (Homo sapiens) (P28222 whole entry): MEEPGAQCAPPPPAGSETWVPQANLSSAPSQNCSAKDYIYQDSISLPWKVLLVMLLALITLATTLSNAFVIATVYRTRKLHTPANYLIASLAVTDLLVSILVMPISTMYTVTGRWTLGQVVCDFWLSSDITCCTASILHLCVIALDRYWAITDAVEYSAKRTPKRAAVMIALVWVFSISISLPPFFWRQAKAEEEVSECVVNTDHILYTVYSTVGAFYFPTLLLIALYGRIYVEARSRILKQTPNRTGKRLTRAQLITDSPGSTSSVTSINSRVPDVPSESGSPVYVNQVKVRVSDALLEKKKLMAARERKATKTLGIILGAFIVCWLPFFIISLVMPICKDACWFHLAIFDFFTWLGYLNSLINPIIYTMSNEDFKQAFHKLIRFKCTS
# Description: PDSP Primary Binding target: HTR1B - Compounds are tested at 10 uM concentration, plate are incubated at room temperature in the dark for 90 minutes. Reaction are stopped by vacuum filtration onto 0.3% polyethyleneimine soaked filter mats using Filtermate harvester. Scintilation cocktail is then melted onto microwave-dried filters on a hot plate and the radio activity is counted in Microbia counter.
# [3] = target: T2, D(4) dopamine receptor (Homo sapiens) (UniProt P21917)
# T2 sequence (whole entry): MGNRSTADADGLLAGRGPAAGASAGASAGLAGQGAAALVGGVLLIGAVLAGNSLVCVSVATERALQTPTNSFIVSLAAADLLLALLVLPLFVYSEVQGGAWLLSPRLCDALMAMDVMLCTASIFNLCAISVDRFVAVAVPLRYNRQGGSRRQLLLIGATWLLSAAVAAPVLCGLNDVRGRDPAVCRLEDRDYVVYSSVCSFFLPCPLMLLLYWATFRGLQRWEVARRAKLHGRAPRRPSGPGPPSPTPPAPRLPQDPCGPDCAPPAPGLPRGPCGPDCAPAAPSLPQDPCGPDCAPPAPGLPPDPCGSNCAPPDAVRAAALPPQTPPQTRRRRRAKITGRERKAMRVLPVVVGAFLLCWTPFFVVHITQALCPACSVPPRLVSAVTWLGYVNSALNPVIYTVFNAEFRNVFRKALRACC
# Description: PDSP Primary Binding target: DRD4 - Compounds are tested at 10 uM concentration, plate are incubated at room temperature in the dark for 90 minutes. Reaction are stopped by vacuum filtration onto 0.3% polyethyleneimine soaked filter mats using Filtermate harvester. Scintilation cocktail is then melted onto microwave-dried filters on a hot plate and the radio activity is counted in Microbia counter.
# [4] = target: T3, Muscarinic acetylcholine receptor M4 (Homo sapiens) (UniProt P08173)
# T3 sequence (whole entry): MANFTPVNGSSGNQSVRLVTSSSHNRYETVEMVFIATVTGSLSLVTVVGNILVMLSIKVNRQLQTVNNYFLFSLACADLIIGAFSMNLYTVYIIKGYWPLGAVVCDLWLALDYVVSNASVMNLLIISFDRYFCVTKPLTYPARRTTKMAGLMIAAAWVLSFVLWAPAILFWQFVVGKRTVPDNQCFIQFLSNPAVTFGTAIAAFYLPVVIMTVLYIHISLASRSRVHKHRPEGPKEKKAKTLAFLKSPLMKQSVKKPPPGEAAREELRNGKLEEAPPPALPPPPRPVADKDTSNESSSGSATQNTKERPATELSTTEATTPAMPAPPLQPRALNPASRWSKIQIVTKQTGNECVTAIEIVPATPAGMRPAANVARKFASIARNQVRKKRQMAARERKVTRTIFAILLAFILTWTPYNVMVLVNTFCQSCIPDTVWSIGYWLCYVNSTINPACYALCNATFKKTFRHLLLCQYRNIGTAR
# Description: PDSP Primary Binding target: CHRM4 - Compounds are tested at 10 uM concentration, plate are incubated at room temperature in the dark for 90 minutes. Reaction are stopped by vacuum filtration onto 0.3% polyethyleneimine soaked filter mats using Filtermate harvester. Scintilation cocktail is then melted onto microwave-dried filters on a hot plate and the radio activity is counted in Microbia counter.
# [5] = target: Translocator protein (Homo sapiens) (UniProt P30536)
# Chain of Translocator protein (Homo sapiens) (P30536 whole entry): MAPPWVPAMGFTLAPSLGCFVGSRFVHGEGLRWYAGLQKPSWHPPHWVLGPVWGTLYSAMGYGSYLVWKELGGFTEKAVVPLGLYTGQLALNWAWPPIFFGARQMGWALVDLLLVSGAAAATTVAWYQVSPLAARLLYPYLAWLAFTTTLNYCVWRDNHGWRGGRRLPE
# Description: PDSP Primary Binding target: TSPO - Compounds are tested at 10 uM concentration, plate are incubated at room temperature in the dark for 90 minutes. Reaction are stopped by vacuum filtration onto 0.3% polyethyleneimine soaked filter mats using Filtermate harvester. Scintilation cocktail is then melted onto microwave-dried filters on a hot plate and the radio activity is counted in Microbia counter.
# [6] = target: Beta-1 adrenergic receptor (Homo sapiens) (UniProt P08588)
# Chain of Beta-1 adrenergic receptor (Homo sapiens) (P08588 whole entry, looked up): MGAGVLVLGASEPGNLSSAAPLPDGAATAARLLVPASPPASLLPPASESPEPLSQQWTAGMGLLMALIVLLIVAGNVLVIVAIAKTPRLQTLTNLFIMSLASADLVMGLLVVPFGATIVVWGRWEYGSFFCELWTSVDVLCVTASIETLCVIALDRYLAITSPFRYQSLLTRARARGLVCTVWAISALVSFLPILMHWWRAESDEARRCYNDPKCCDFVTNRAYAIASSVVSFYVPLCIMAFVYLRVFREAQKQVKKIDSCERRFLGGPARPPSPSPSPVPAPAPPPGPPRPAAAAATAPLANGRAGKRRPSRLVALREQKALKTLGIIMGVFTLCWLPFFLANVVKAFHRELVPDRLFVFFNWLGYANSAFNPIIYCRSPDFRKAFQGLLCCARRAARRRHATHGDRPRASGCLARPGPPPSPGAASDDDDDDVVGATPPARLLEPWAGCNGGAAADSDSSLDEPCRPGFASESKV
# Description: PDSP Primary Binding target: ADRB1 - Compounds are tested at 10 uM concentration, plate are incubated at room temperature in the dark for 90 minutes. Reaction are stopped by vacuum filtration onto 0.3% polyethyleneimine soaked filter mats using Filtermate harvester. Scintilation cocktail is then melted onto microwave-dried filters on a hot plate and the radio activity is counted in Microbia counter.
# [7] = target: Kappa-type opioid receptor (Homo sapiens) (UniProt P41145)
# Chain of Kappa-type opioid receptor (Homo sapiens) (P41145 whole entry): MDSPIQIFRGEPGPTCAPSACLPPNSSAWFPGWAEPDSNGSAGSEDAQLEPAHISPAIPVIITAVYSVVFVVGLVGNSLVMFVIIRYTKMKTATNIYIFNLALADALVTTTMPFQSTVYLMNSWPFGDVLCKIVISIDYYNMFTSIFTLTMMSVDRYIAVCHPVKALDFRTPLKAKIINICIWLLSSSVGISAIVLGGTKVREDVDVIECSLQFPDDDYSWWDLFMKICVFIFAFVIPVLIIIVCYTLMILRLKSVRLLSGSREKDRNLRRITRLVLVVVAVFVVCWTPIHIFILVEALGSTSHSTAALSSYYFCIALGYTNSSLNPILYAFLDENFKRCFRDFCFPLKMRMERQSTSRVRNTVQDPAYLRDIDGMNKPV
# Description: PDSP Primary Binding target: OPRK1 - Compounds are tested at 10 uM concentration, plate are incubated at room temperature in the dark for 90 minutes. Reaction are stopped by vacuum filtration onto 0.3% polyethyleneimine soaked filter mats using Filtermate harvester. Scintilation cocktail is then melted onto microwave-dried filters on a hot plate and the radio activity is counted in Microbia counter.
# [8] = target: Beta-2 adrenergic receptor (Homo sapiens) (UniProt P07550)
# Chain of Beta-2 adrenergic receptor (Homo sapiens) (P07550 whole entry, looked up): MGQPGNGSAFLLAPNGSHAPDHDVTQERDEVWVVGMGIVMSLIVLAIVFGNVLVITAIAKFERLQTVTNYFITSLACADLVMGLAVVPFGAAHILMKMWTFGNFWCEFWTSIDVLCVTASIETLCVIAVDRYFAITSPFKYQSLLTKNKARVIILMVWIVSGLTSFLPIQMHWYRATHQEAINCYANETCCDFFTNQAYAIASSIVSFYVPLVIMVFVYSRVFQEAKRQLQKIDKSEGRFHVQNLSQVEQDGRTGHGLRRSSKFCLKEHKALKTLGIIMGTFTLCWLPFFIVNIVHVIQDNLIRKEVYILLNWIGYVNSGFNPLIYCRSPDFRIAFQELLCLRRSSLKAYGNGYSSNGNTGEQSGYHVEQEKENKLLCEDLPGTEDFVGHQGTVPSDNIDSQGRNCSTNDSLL
# Description: PDSP Primary Binding target: ADRB2 - Compounds are tested at 10 uM concentration, plate are incubated at room temperature in the dark for 90 minutes. Reaction are stopped by vacuum filtration onto 0.3% polyethyleneimine soaked filter mats using Filtermate harvester. Scintilation cocktail is then melted onto microwave-dried filters on a hot plate and the radio activity is counted in Microbia counter.
# [9] = target: D(1A) dopamine receptor (Homo sapiens) (UniProt P21728)
# Chain of D(1A) dopamine receptor (Homo sapiens) (P21728 whole entry): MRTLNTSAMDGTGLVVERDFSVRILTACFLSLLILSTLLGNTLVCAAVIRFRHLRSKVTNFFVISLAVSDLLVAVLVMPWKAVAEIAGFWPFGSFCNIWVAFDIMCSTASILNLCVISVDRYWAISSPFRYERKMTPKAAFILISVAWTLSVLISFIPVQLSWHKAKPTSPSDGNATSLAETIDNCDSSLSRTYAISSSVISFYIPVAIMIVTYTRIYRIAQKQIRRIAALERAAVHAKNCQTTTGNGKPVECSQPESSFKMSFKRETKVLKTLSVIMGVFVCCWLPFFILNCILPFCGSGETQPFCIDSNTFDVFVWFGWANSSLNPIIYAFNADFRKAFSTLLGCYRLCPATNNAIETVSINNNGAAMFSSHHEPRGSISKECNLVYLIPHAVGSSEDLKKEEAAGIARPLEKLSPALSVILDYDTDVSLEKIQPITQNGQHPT
# Description: PDSP Primary Binding target: DRD1 - Compounds are tested at 10 uM concentration, plate are incubated at room temperature in the dark for 90 minutes. Reaction are stopped by vacuum filtration onto 0.3% polyethyleneimine soaked filter mats using Filtermate harvester. Scintilation cocktail is then melted onto microwave-dried filters on a hot plate and the radio activity is counted in Microbia counter.
# [10] = target: D(2) dopamine receptor (Homo sapiens) (UniProt P14416)
# Chain of D(2) dopamine receptor (Homo sapiens) (P14416 whole entry): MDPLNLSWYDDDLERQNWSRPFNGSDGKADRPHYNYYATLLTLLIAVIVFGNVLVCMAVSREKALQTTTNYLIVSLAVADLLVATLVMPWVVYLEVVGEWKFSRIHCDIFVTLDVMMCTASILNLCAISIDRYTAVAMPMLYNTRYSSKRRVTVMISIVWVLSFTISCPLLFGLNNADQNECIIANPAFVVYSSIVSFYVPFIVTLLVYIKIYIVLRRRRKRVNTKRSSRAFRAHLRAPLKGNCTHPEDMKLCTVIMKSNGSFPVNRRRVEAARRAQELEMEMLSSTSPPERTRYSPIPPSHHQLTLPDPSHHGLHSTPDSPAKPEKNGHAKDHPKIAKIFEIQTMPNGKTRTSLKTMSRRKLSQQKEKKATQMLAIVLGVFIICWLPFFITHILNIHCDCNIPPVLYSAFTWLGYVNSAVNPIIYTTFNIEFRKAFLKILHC
# Description: PDSP Primary Binding target: DRD2 - Compounds are tested at 10 uM concentration, plate are incubated at room temperature in the dark for 90 minutes. Reaction are stopped by vacuum filtration onto 0.3% polyethyleneimine soaked filter mats using Filtermate harvester. Scintilation cocktail is then melted onto microwave-dried filters on a hot plate and the radio activity is counted in Microbia counter.
# [11] = target: T4, Alpha-1A adrenergic receptor (Homo sapiens) (UniProt P35348)
# T4 sequence (whole entry): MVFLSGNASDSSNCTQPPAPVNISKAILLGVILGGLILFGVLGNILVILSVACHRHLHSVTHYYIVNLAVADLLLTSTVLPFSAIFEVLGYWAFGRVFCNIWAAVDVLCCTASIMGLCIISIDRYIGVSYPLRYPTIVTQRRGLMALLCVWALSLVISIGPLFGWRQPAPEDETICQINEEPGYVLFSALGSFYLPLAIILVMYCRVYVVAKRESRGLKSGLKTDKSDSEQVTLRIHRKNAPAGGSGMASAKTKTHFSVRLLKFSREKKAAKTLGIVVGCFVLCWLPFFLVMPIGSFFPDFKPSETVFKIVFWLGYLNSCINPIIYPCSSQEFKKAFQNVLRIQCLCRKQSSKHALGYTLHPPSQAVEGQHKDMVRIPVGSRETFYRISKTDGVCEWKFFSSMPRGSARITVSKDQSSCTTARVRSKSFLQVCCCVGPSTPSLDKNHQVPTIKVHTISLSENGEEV
# Description: PDSP Primary Binding target: ADRA1A - Compounds are tested at 10 uM concentration, plate are incubated at room temperature in the dark for 90 minutes. Reaction are stopped by vacuum filtration onto 0.3% polyethyleneimine soaked filter mats using Filtermate harvester. Scintilation cocktail is then melted onto microwave-dried filters on a hot plate and the radio activity is counted in Microbia counter.
# [12] = target: 5-hydroxytryptamine receptor 5A (Homo sapiens) (UniProt P47898)
# Chain of 5-hydroxytryptamine receptor 5A (Homo sapiens) (P47898 whole entry): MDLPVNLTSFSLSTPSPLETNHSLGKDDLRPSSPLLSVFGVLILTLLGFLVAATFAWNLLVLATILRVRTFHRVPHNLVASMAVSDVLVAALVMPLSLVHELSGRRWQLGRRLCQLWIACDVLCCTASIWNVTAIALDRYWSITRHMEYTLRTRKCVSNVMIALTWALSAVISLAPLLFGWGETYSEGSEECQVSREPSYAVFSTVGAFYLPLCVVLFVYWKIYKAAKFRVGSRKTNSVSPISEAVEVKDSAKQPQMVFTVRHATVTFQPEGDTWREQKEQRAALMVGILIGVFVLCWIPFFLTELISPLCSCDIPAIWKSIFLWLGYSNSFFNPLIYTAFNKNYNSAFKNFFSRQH
# Description: PDSP Primary Binding target: HTR5A - Compounds are tested at 10 uM concentration, plate are incubated at room temperature in the dark for 90 minutes. Reaction are stopped by vacuum filtration onto 0.3% polyethyleneimine soaked filter mats using Filtermate harvester. Scintilation cocktail is then melted onto microwave-dried filters on a hot plate and the radio activity is counted in Microbia counter.
# [13] = target: 5-hydroxytryptamine receptor 1E (Homo sapiens) (UniProt P28566)
# Chain of 5-hydroxytryptamine receptor 1E (Homo sapiens) (P28566 whole entry): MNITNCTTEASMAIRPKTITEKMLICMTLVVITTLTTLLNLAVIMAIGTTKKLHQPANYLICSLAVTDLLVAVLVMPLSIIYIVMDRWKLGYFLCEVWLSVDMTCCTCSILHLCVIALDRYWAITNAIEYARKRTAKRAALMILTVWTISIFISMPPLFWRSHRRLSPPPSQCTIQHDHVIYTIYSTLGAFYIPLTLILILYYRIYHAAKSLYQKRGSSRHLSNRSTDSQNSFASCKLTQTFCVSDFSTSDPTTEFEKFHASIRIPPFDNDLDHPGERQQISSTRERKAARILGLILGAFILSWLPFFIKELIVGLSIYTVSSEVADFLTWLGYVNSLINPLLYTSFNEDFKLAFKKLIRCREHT
# Description: PDSP Primary Binding target: HTR1E - Compounds are tested at 10 uM concentration, plate are incubated at room temperature in the dark for 90 minutes. Reaction are stopped by vacuum filtration onto 0.3% polyethyleneimine soaked filter mats using Filtermate harvester. Scintilation cocktail is then melted onto microwave-dried filters on a hot plate and the radio activity is counted in Microbia counter.
# [14] = target: Sodium-dependent dopamine transporter (Homo sapiens) (UniProt Q01959)
# Chain of Sodium-dependent dopamine transporter (Homo sapiens) (Q01959 whole entry): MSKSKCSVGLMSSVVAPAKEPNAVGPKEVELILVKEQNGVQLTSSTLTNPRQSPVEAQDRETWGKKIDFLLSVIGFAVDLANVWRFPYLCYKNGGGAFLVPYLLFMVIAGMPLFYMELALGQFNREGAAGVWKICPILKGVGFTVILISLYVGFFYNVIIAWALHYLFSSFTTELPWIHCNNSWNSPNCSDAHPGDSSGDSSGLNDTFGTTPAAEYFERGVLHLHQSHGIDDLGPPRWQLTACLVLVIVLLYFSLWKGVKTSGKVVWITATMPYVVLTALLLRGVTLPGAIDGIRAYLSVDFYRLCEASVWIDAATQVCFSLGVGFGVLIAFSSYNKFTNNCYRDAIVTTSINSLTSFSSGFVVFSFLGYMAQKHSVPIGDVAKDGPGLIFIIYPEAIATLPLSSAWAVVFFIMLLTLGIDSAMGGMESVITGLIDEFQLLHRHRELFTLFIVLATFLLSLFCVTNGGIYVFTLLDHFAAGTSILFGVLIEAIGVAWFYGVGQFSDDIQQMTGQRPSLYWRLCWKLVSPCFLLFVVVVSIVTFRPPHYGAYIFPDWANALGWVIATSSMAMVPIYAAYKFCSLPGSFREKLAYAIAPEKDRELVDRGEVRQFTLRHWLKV
# Description: PDSP Primary Binding target: SLC6A3 - Compounds are tested at 10 uM concentration, plate are incubated at room temperature in the dark for 90 minutes. Reaction are stopped by vacuum filtration onto 0.3% polyethyleneimine soaked filter mats using Filtermate harvester. Scintilation cocktail is then melted onto microwave-dried filters on a hot plate and the radio activity is counted in Microbia counter.
# [15] = target: T5, 5-hydroxytryptamine receptor 1A (Homo sapiens) (UniProt P08908)
# T5 sequence (whole entry): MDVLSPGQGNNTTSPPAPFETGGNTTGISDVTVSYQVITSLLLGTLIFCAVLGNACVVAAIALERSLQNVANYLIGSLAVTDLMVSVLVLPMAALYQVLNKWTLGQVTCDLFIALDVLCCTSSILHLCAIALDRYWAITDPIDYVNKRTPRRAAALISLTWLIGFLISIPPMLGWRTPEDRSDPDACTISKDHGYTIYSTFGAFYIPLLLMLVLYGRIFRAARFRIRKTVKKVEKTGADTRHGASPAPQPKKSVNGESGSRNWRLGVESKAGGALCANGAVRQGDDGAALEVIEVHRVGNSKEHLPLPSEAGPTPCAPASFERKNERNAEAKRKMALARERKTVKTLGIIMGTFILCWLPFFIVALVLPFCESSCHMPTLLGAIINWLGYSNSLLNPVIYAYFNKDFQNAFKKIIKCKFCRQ
# Description: PDSP Primary Binding target: HTR1A - Compounds are tested at 10 uM concentration, plate are incubated at room temperature in the dark for 90 minutes. Reaction are stopped by vacuum filtration onto 0.3% polyethyleneimine soaked filter mats using Filtermate harvester. Scintilation cocktail is then melted onto microwave-dried filters on a hot plate and the radio activity is counted in Microbia counter.
# [16] = target: 5-hydroxytryptamine receptor 6 (Homo sapiens) (UniProt P50406)
# Chain of 5-hydroxytryptamine receptor 6 (Homo sapiens) (P50406 whole entry): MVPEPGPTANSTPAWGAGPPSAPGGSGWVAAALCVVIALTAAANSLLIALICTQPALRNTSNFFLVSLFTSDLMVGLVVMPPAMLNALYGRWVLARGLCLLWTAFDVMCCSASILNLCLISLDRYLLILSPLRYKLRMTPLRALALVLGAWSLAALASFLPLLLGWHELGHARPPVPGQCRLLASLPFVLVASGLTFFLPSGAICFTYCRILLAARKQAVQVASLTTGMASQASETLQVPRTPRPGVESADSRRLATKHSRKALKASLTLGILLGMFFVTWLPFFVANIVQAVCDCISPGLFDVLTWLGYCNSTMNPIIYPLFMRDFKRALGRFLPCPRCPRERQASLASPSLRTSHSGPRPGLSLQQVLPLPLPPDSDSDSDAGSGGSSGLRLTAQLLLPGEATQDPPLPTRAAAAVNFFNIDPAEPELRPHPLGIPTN
# Description: PDSP Primary Binding target: HTR6 - Compounds are tested at 10 uM concentration, plate are incubated at room temperature in the dark for 90 minutes. Reaction are stopped by vacuum filtration onto 0.3% polyethyleneimine soaked filter mats using Filtermate harvester. Scintilation cocktail is then melted onto microwave-dried filters on a hot plate and the radio activity is counted in Microbia counter.
SMILES,inhibition [1] [%],inhibition [2] [%],inhibition [3] [%],inhibition [4] [%],inhibition [5] [%],inhibition [6] [%],inhibition [7] [%],inhibition [8] [%],inhibition [9] [%],inhibition [10] [%],inhibition [11] [%],inhibition [12] [%],inhibition [13] [%],inhibition [14] [%],inhibition [15] [%],inhibition [16] [%]
CN1C(=O)[C@@H](NC(=O)c2cc3ccccc3[nH]2)N=C(c2ccccc2)c2ccccc21,34.7,27.2,-8.65,-8,59.1,13.8,30.7,4.31,7.2,4.63,2.69,-2.34,-6.92,42.1,-1.26,25.7
CCc1ccc(OCc2ccccc2C(=O)Nc2ccc3nc(C)cc(N)c3c2)cc1,55.2,46.6,21.3,65.2,54.7,3.07,72,8.05,47.8,36.2,45.6,52.3,9.69,68.4,9.8,46.5
CCCSc1nc(N[C@@H]2C[C@H]2c2ccc(F)c(F)c2)c2nnn([C@@H]3C[C@H](OCCO)[C@@H](O)[C@H]3O)c2n1,41.2,19.3,7.98,-3.79,46,4.3,27.5,5.05,24,29,11.7,33.2,3.9,75.8,11.6,7.72
COc1ccc(NS(=O)(=O)c2sc3ccc(Cl)cc3c2C)cc1N1CCNCC1,35.1,48.8,0.64,5.58,39.5,50.6,75.5,32.3,16.9,37.4,39.7,58.1,13.8,63.1,67.4,87.3
O=S1(=O)c2cccc3cccc(c23)N1CCCN1CCN(c2ccc(F)cc2)CC1,104,31.4,108,1.66,28.7,8.94,56,21.3,59.8,41.2,97.8,58.9,-4.51,75.8,91.6,52.9
CCCCN1CCC(COC(=O)c2cc(Cl)c(N)c3c2OCCO3)CC1,33.3,35.3,24.9,5.81,0.42,10.7,7.01,14.1,3.42,43.7,52.9,-0.67,22.6,19.5,-1.01,20.1
COC(=O)C1=C(C)NC(C)=C(C(=O)OCCCN2CCC(c3ccccc3)(c3ccccc3)CC2)[C@H]1c1cccc([N+](=O)[O-])c1,90,89.2,41.5,24.8,79.8,31.8,95.6,22.1,80.7,79.2,98.9,68.7,40,89.7,83.7,71.6
Clc1cccc(COc2cncc(N3CCNCC3)n2)c1,36.1,89,42.2,85.7,36.1,50.8,28.3,32.6,29.3,3.43,11.2,13.2,76,33.5,86,97.9
COc1ccc(OC(F)(F)F)cc1CN[C@H]1CCCN[C@H]1c1ccccc1,0.54,10,-2.15,-2.31,17.5,1.65,21.1,-1.91,4.84,16.6,31.1,24.8,12.4,57.6,56.2,23.8
COc1cccc([C@@H](C)NCCCc2ccccc2Cl)c1,72.4,22.4,32.2,27.2,9.42,15.9,65.3,-2.01,12.6,43.9,24,61.2,4.34,31.1,54.6,84.3
OC1(c2ccc(Cl)cc2)CCN(Cc2c[nH]c3ccccc23)CC1,83.8,19.3,66.1,-10,-2.88,38.7,3.1,-1.99,70.3,90.2,66.1,37.7,–,80,2,-7.57
